Patent publication US9006431B2, “Crystalline form of pemirolast” (Cardoz AB, priority 2009, dated 2015)
Each block holds one compound with its values, some of them ahead of it.

What was measured:
[1] = Stability study at different moisture levels and temperatures (appearance, Karl Fischer, PXRD); assay type: physicochemical
Method: To determine the relative stability of pemirolast sodium obtained in accordance with the method described in Example 10 (hemihydrate), Example 11 (heptahydrate) and Example 5 (amorphous form) at different moisture levels, a stability study was performed.
The study was performed under four different storage conditions with different moisture levels and temperatures, 40° C./75% RH, 25° C./60% RH, room temperature/10-20% RH, and room temperature/>90% RH. The substances were stored open in glass beakers and samples were withdrawn periodically for analysis (time zero, 1 week and 4 weeks).
At the time intervals mentioned, the visual appearance was inspected by (a) placing a spatula of substance on a white background, munktell filter (no smearing or crushing of the substances was performed), and (b) by microscopy equipped with plane polarized light. The water content was also analysed using Karl Fischer titration. PXRD was conducted at time zero and at 4 weeks.

[2] = Storage under ambient conditions followed by FT-Raman; assay type: physicochemical; settings: about a month
Method: FT-Raman spectra were recorded on a Bruker RFS 100 FT-Raman system with a near infrared Nd:YAG laser operating at 1064 nm and a liquid nitrogen-cooled germanium detector. 64 scans with a resolution of 2 cm^−1 were accumulated in the range from 3500 to 50 cm^−1. In general, 100 mW laser power was used.
The Raman spectrum was recorded directly after recrystallisation. All samples were then stored under ambient conditions on a shelf in a fume hood. […] This is shown in FIG. 4, where the lower spectrum accords to the earlier measurement and the upper spectrum accords to the later measurement.

[3] = cited from earlier work
[4] = humans; cited from earlier work
[5] = In vitro dissolution study (Ph. Eur. Apparatus 2, paddle); assay type: physicochemical; settings: 30 mg, 50 mM phosphate buffer pH 6.8, 50 rpm, 37° C.
Method: An in vitro dissolution study was performed on pemirolast potassium (obtained Chemtronica AB, Stockholm, Sweden) and pemirolast sodium hemihydrate (prepared in accordance with the method described in Example 10 above) using standard Ph. Eur. Methodology (Apparatus 2 (paddle), Ph. Eur., 2.9.3, using 50 mM phosphate buffer pH 6.8 as a dissolution medium. A stirring rate of 50 rpm was employed. The temperature was 37° C.). Tests were performed in triplicate. 30 mg of each substance was added to separate vessels and the timer started. Sampling was at regular intervals using a 1 mL plastic syringe, depending on how quickly the substance appeared to dissolve (by visual inspection). The sample was filtered into HPLC vials using a small diameter filter. The samples were analysed by reversed phase HPLC. Quantification of pemirolast was performed by means of UV detection.

[6] = Dynamic Vapor Sorption (DVS) hygroscopicity classification; assay type: physicochemical; settings: for relative humidity above which significant water uptake starts: DVS; for hygroscopicity class by DVS analysis: mass change at 85% RH compared to the starting material
Method: HPLC was performed on a TSP HPLC (UV3000, AS3000, P4000, SCM1000 Soft. Version 4.1); column: Waters, X Terra MS C18 4.6×100 mm, 5μ (CC01); mobile phase A: H2O+0.1% TFA; mobile phase B: acetonitrile+0.1% TFA; reference concentration: ca. 0.09 mg/mL; retention time: 6.6 minutes; gradient: 0.0 min: A:95%/B:5%; 20.0 min: A:5%/B:95%; 21.0 min: A:95%/B:5%; 30.0 min: A:95%/B:5%; flow: 1.0 mL/minute; injection volume: 10 μL; wavelength: 254 nm. Dynamic Vapor Sorption (DVS) measurements were carried out on a Sorption Measurement System SPS11-100n. The sample was placed in an aluminum crucible and the sample was allowed to equilibrate at a given RH before starting a pre-defined humidity program. (1) 2 h at 50% RH; (2) 50→0% RH (5%/h); (3) 5 h at 0% RH; (4) 0→95% RH (5%/h); (5) 5 h at 95% RH; (6) 95→50% RH (5%/h); (7) 2 h at 50% RH. Hygroscopicity was classified according to the European Pharmacopoeia (storage at 80% RH/25° C. for 24 hours). The mass change at 85% RH was used for classification, as compared to the starting material (at ambient conditions)—very hygroscopic: increase of mass ≧15%; hygroscopic: increase of mass is less than 15% and equal to or greater than 2%; slightly hygroscopic: increase of mass is less than 2% and equal to or greater than 0.2%; deliquescent: sufficient water is absorbed to form a liquid.

[7] = Aqueous solubility (shake 24 hours, HPLC of filtrate); assay type: physicochemical; settings: doubly distilled water, 22° C.
Method: About 40 mg of a sample (obtained by way of the procedure described in Example 2 above) was dispersed in 0.25 mL of doubly distilled water. The suspension was shaken at 22° C. for 24 hours. Afterwards, a fast solid/liquid-separation was performed using an Eppendorf Thermomixer Comfort (400 rpm). The suspensions were filtered with Millipore Centrifugal Filter Devices (PTFE filter; 0.2 μm) in a Centrifuge Hettich EBA 12 R (15,000 g, 1 minute, 22° C.). The concentration of the sample in the filtrate was analyzed by HPLC, and the solid phase was analyzed by FT-Raman spectroscopy.

[8] = PXRD of 30 mg tablets after tabletting; assay type: physicochemical; settings: crushed and intact
Method: For all tablets, friability and crushing resistance tests were conducted according to standard methodology (Ph. Eur. 6.0, 2.9.7 and 2.9.8, respectively, with the exception that the crushing resistance results are presented in kp rather than N according to the Ph. Eur.). PXRD was also performed on the 30 mg tablets after tabletting on both crushed and intact tablets. In view of the endotherms observed (and reported in Example 11 above) by DSC for the heptahydrate, it was expected that this may limit the ability of that polymorph to form tablets by compression (given that internal temperatures of 70° C. can easily be reached during the compression process). It was therefore decided to analyse the 30 mg tablets by PXRD as stated above.

plasma tryptase = test: Plasma tryptase levels in subjects with CRP above 0.9 mg/L; assay type: in vivo
[9] = listed as potassium salt of pemirolast
[10] = listed as Example 1, Sodium Hemihydrate
[11] = listed as Example 2, Sodium Hemihydrate

solid phase stability ([1]; 60% RH and above): crystallized
solid phase stability ([1]; dry conditions (10-20% RH)): remains amorphous
physical stability (Raman spectrum changed) [2]: physically unstable
SMILES: Cc1cccn2c(=O)c(-c3nnn[n-]3)cnc12.[Na+] [amorphous form of pemirolast sodium, reference compound]

relative humidity above which significant water uptake starts [6]: above 70 % RH
aqueous solubility [7, 9]: 192.38 mg/mL
pH of the saturated solution [7, 9]: 9.0
SMILES: Cc1cccn2c(=O)c(-c3nnn[nH]3)cnc12 [pemirolast potassium, reference compound]
hygroscopicity (reported) ([3]; Pharmaceutical Interview Form): hygroscopic
aqueous solubility (reported) ([3]; source: Pharmaceutical Interview Form): 179 to 182 mg/mL
plasma concentration profile [4]: sharp plasma concentration peaks
dissolution behaviour ([5]; listed as potassium salt): dissolved as soon as it was added to the dissolution medium
hygroscopicity class by DVS analysis [6]: very hygroscopic (very hygroscopic: increase of mass ≧15%)

solid phase stability ([1]; relative humidity of 60% and less (down to 10-20% RH), up to 4 weeks): stable
water content (Karl Fischer) on storage, unchanged ([1]; relative humidity of 60% and less, up to 4 weeks): 2.8%
relative humidity above which significant water uptake starts [6, 10]: above 80 % RH
phase transitions during tabletting (PXRD) [8]: no phase transitions occurred
aqueous solubility [7, 11]: 23.64 mg/mL
pH of the saturated solution [7, 11]: 8.0
SMILES: Cc1cccn2c(=O)c(-c3nnn[nH]3)cnc12 [pemirolast sodium hemihydrate, Pemirolast Sodium Hemihydrate]
solid phase stability ([1]; 75% RH and above): converted to a previously unknown solid state form
dissolution behaviour ([5]; listed as sodium hemihydrate salt, Sodium Hemihydrate): formed large aggregates and appeared to be more difficult to dissolve
hygroscopicity class by DVS analysis [6, 10]: hygroscopic (hygroscopic: increase of mass is less than 15% and equal to or greater than 2%)

solid phase stability ([1]; 60% RH, up to 4 weeks): stable
solid phase stability ([1]; dry conditions (10-20% RH)): converted to the hemihydrate form
phase transitions during tabletting (PXRD) [8]: no phase transitions occurred
SMILES: Cc1cccn2c(=O)c(-c3nn[n-]n3)cnc12.O.O.O.O.O.O.O.[Na+] [pemirolast sodium heptahydrate, Pemirolast Sodium Heptahydrate]
solid phase stability ([1]; 75% RH): converted partially to the new solid state form
solid phase stability ([1]; 90% RH): no signs of phase transitions were observed

SMILES: Cc1cccn2c(=O)c(-c3nnn[nH]3)cnc12 [pemirolast, 9-Methyl-3-(1H-tetrazol-5-yl)-4H-pyrido[1,2-a]pyrimidin-4-one]
effect on plasma tryptase levels (plasma tryptase): does not concomitantly reduce plasma tryptase levels
